Test results from US4581354A, “3-arylcarbonyl- and 3-cycloalkylcarbonyl-1-aminoalkyl-1H-indoles, compositions and use” (Sterling Drug Inc., priority 1985, dated 1986).
Counter-ions that a name gives are not always drawn. Like-named read-outs stand apart in the source and are kept apart here.

Tested on: acetylcholine-induced abdominal constriction
Experiment: animal or person
Format: in vivo, mice
Details: Mus musculus; for inhibition in vivo at 300 mg/kg: 300 mg./kg. oral; for ED50: read-out: Ach ED50; for inhibition in vivo at 100 mg/kg: 100 mg./kg. oral
[1] = po, read-out: Ach percent inhibition
[2] = sc, 30 mg./kg. s.c., read-out: Ach percent inhibition
[3] = po, 30 mg./kg. oral, read-out: Ach percent inhibition

## Cc1c(C(=O)c2ccc(NS(C)(=O)=O)cc2)c2ccccc2n1CCN1CCOCC1 [Example 5E]
po, 150 mg./kg. oral, read-out: Ach percent inhibition
  inhibition in vivo at 150 mg/kg: 38%
[1]
  inhibition in vivo at 300 mg/kg: 40%

## CCC(=O)Nc1ccc(C(=O)c2c(C)n(CCN3CCOCC3)c3ccccc23)cc1 [Example 5F]
po
  ED50: 76 mg/kg

## CCCCNc1ccc(C(=O)c2c(C)n(CCN3CCOCC3)c3ccccc23)cc1 [Example 8B, 2-methyl-3-(4-butylaminobenzoyl)-1-[2-(4-morpholinyl)ethyl]-1H-indole]
[1]
  inhibition in vivo at 100 mg/kg: 35%

## Cc1c(C(=O)c2ccc(NC(N)=O)cc2)c2ccccc2n1CCN1CCOCC1 [Example 9, 2-methyl-3-(4-carbamylaminobenzoyl)-1-[2-(4-morpholinyl)ethyl]-1H-indole]
[1]
  inhibition in vivo at 300 mg/kg: 27%
[2]
  inhibition in vivo at 30 mg/kg: 20%

## Cc1c(C(=O)c2ccc(CNC(N)=NC#N)cc2)c2ccccc2n1CCN1CCOCC1 [Example 10, 2-methyl-3-(4-cyanoguanidinylmethylbenzoyl)-1-[2-(4-morpholinyl)ethyl]-1H-indole]
[3]
  inhibition in vivo at 30 mg/kg: 0%
[2]
  inhibition in vivo at 30 mg/kg: 7%

## Cc1c(C(=O)c2ccc(C=O)cc2)c2ccccc2n1CCN1CCOCC1 [Example 11, 2-methyl-3-(4-formylbenzoyl)-1-[2-(4-morpholinyl)ethyl]-1H-indole]
[3]
  inhibition in vivo at 30 mg/kg: 20%
[2]
  inhibition in vivo at 30 mg/kg: 13%

## COc1ccc(C(=NO)c2c(C)n(CCN3CCOCC3)c3ccccc23)cc1 [Example 13A, 2-methyl-3-(4-methoxybenzoyl)-1-[2-(4-morpholinyl)ethyl]-1H-indole oxime]
po
  ED50: 139 mg/kg

## Cc1c(C(=NO)c2ccccc2F)c2cc(F)ccc2n1CCCN1CCOCC1 [Example 13B, 5-fluoro-3-(2-fluorobenzoyl)-2-methyl-1-[3-(4-morpholinyl)propyl]-1H-indole oxime]
[1]
  inhibition in vivo at 100 mg/kg: 0%

## Cc1c(/C(=N\O)c2ccccc2F)c2ccccc2n1CCN1CCOCC1 [Example 13C, (E)-3-(2-fluorobenzoyl)-2-methyl-1-[2-(4-morpholinyl)ethyl]-1H-indole oxime]
[1]
  inhibition in vivo at 100 mg/kg: 20%

## Cc1c(C(=O)c2ccc(-n3cccc3)cc2)c2ccccc2n1CCN1CCOCC1 [Example 14, 2-methyl-3-[4-(1H-pyrrol-1-yl)benzoyl]-1-[2-(4-morpholinyl)ethyl]-1H-indole]
[1]
  inhibition in vivo at 100 mg/kg: 40%

## COc1ccc(C(=O)c2c(C)n(CC[N+]3([O-])CCOCC3)c3ccccc23)cc1 [Example 15, 2-methyl-3-(4-methoxybenzoyl)-1-[2-(4-morpholinyl)ethyl]-1H-indole/N(MOR)-oxide]
po
  ED50: 155 mg/kg

## Cc1c(C(=O)c2ccccc2O)c2ccccc2n1CCN1CCOCC1 [Example 16A, 2-methyl-3-(2-hydroxybenzoyl)-1-[2-(4-morpholinyl)ethyl]-1H-indole]
[1]
  inhibition in vivo at 100 mg/kg: 10%

## Cc1c(C(=O)c2ccc(O)cc2)c2cc(F)ccc2n1CCCN1CCOCC1 [Example 16B, 5-fluoro-2-methyl-3-(4-hydroxybenzoyl)-1-[3-(4-morpholinyl)propyl]-1H-indole hydrochloride]
[1]
  inhibition in vivo at 100 mg/kg: 20%

## COc1ccc(C(=O)c2c(C)n(CCN3CCOCC3)c3cc(O)ccc23)cc1 [Example 18, 6-hydroxy-2-methyl-3-(4-methoxybenzoyl)-1-[2-(4-morpholinyl)ethyl]-1H-indole hydrochloride hydrate (3:4)]
[1]
  inhibition in vivo at 100 mg/kg: 30%

## COc1ccc(C(=O)C=Cc2c(C)n(CCN3CCOCC3)c3ccccc23)cc1 [Example 19, 1-{2-methyl-1-[2-(4-morpholinyl)ethyl]-1H-indol-3-yl}-3-(4-methoxyphenyl)propen-3-one monohydrochloride]
[1]
  inhibition in vivo at 100 mg/kg: 40%

## Cc1ccccc1C=CC(=O)c1c(C)n(CCN2CCOCC2)c2ccccc12 [Example 20A, 3-(2-methylcinnamoyl)-2-methyl-1-[2-(4-morpholinyl)ethyl]-1H-indole]
po
  ED50: 128 mg/kg

## Cc1c(C(=O)C=Cc2ccccc2F)c2ccccc2n1CCN1CCOCC1 [Example 20B, 3-(2-fluorocinnamoyl)-2-methyl-1-[2-(4-morpholinyl)ethyl]-1H-indole]
[1]
  inhibition in vivo at 100 mg/kg: 40%
